Source: PMC8391421, “Identification of Novel Positive Allosteric Modulators of Neurotrophin Receptors for the Treatment of Cognitive Dysfunction” (Cells, 2021)
One block for each molecule: values may come before it.

Key:
TrkB = target: T1, TrkB (Homo sapiens, UniProt Q16620); assay: TrkB PathHunter cell-based assay (U2OS-TrkB/p75)
T1 construct: host or cells: U2OS (human osteosarcoma), co-expressing p75 and SHC-1 fused to the enzyme acceptor
Protocol: U2OS cells were maintained subconfluent in EMEM supplemented with 10% FBS and penicillin/streptomycin/hygromycin and G418. One day prior to the experiment, 5000 cells of EMEM supplemented with 0.5% horse serum were seeded in each well of a 384-well white plate. The assay was performed as previously described. Briefly, the TrkA or TrkB cell-based PathHunter® assays use enzyme fragment complementation (EFC) technology for the complementation of two β-galactosidase (β-gal) fragments in order to study protein–protein interactions. Upon activation with ligand, TrkA or TrkB are phosphorylated on several tyrosine residues, including tyrosine 490, leading to an interaction with SHC-1. In the PathHunter® assays, the Trk-receptors are fused to an enzyme donor tag, and SHC-1 is fused to a larger part of β-gal called an enzyme acceptor. The interactions between the recombinant enzyme donor, i.e., the Trk-receptor, with an enzyme acceptor, i.e., SHC-1, leads to an active β-gal enzyme. The functional (complemented) β-gal will hydrolyze a substrate to generate a luminescence signal. The generated luminescence was read using an EnVision plate reader from PerkinElmer, Upplands Väsby, Sweden, or an ID5 plate reader from Molecular Devices, Berkshire, RG41 5TS UK. […] Min- and Max-control wells were included on each plate. A compound was considered a hit if the percent activation was more than 50% and if the value was two standard deviations higher than the mean value of all of the samples on the plate. The average activation of all of samples on 10 different 384-well plates was 31%. […] Due to the risk of adverse events with the systemic administration of TrkA agonists, the screen and the re-screen processes were designed to increase the likelihood of identifying the positive modulators of NGF-signaling rather than identifying TrkA agonists. Based on the results of the re-screen, in combination with the physical–chemical properties of the molecules, a collection of hits was used for the EC50 determinations.
Both Toltrazuril and Ponazuril are registered veterinary products prescribed for parasitic infections in animals. […] The cellular response to NGF or BDNF was measured using PathHunter® assays employing β-gal enzyme fragment complementation technology. The activation of Trk-receptors leads to an intracellular interaction between the Trk-receptor and SHC-1 and thereby to the complementation of β-gal, which will render in a functional enzyme. β-gal will hydrolyze a substrate to generate luminescence, which is proportional to the number of activated receptors. […]

TrkA = target: T2, TrkA (Homo sapiens, UniProt P04629); assay: TrkA PathHunter cell-based assay (U2OS-TrkA/p75)
T2 construct: host or cells: U2OS (human osteosarcoma), co-expressing p75 and SHC-1 fused to the enzyme acceptor
Protocol: U2OS cells were maintained subconfluent in EMEM supplemented with 10% FBS and penicillin/streptomycin/hygromycin and G418. One day prior to the experiment, 5000 cells of EMEM supplemented with 0.5% horse serum were seeded in each well of a 384-well white plate. The assay was performed as previously described. Briefly, the TrkA or TrkB cell-based PathHunter® assays use enzyme fragment complementation (EFC) technology for the complementation of two β-galactosidase (β-gal) fragments in order to study protein–protein interactions. Upon activation with ligand, TrkA or TrkB are phosphorylated on several tyrosine residues, including tyrosine 490, leading to an interaction with SHC-1. In the PathHunter® assays, the Trk-receptors are fused to an enzyme donor tag, and SHC-1 is fused to a larger part of β-gal called an enzyme acceptor. The interactions between the recombinant enzyme donor, i.e., the Trk-receptor, with an enzyme acceptor, i.e., SHC-1, leads to an active β-gal enzyme. The functional (complemented) β-gal will hydrolyze a substrate to generate a luminescence signal. The generated luminescence was read using an EnVision plate reader from PerkinElmer, Upplands Väsby, Sweden, or an ID5 plate reader from Molecular Devices, Berkshire, RG41 5TS UK. […] Min- and Max-control wells were included on each plate.
Both Toltrazuril and Ponazuril are registered veterinary products prescribed for parasitic infections in animals. […] The activation of Trk-receptors leads to an intracellular interaction between the Trk-receptor and SHC-1 and thereby to the complementation of β-gal, which will render in a functional enzyme. β-gal will hydrolyze a substrate to generate luminescence, which is proportional to the number of activated receptors.

Wistar rats = assay: Novel object recognition; format: in vivo, rat; conditions: 1 mg/kg
Protocol: The novel object recognition model was conducted by Suven Life Sciences Ltd. (Hyderabad, India) using male Wistar rats (n = 12/group). This study was performed in compliance with the requirements and in-house animal care and usage policy of the Institutional Animal Ethics Committee (IAEC). The experiment was conducted over a 5-day period. For the first 3 days, ACD855 or vehicle were administered to the animals. On Day 4, the rats were acclimatized to their respective arenas for 20 min and then returned to their home cages for the administration of ACD855 or vehicle (1 h post habituation phase). On Day 5, the rats were administered vehicle or ACD855 1 h prior to trial, donepezil (1 mg/kg) was injected 30 min prior to trial, and scopolamine (1 mg/kg) was injected 20 min prior to trial. 20 min after scopolamine administration, the rats were subjected to the familiarization phase. The experiment was performed as described by Lueptow. The discriminative index for the drug-treated groups was compared to that of the vehicle group by use of the Kruskal–Wallis test. The discriminative index is the ratio of time spent exploring the novel object divided by the sum of the time spent exploring the novel object and a familiar object in the choice trial.

C57BL/6J mice = assay: Passive avoidance task; format: in vivo, mouse; conditions: low doses given by themselves; physostigmine 0.025 mg/kg
Protocol: The passive avoidance (PA) task is an associate learning paradigm that is based on Pavlovian fear-conditioning and instrumental conditioning and conducted as previously described in male C57BL/6J mice (n = 7–8/group) from Charles River Laboratories, Sulzfeld, Germany. Vehicle or ACD855 (1, 3 or 10 mg/kg), formulated in 20% DMSO in 0.1 M sodium phosphate buffer pH 8.0, was administered daily (Days 1–4) through s.c. injections (4 mL/kg body weight). ACD856 (0.1, 0.3, 1 or 3 mg/kg) was administered by a single s.c. dose on the training day (Day 4). ACD855, ACD856, ANA-12 (0.5 mg/kg, from Sigma Aldrich, Stockholm, Sweden), physostigmine (0.025 mg/kg, from Sigma Aldrich, Stockholm, Sweden), or vehicle was administered 60 min prior to training, except for when addressing the effects on consolidation, in which case, ACD856 was dosed 5 min after the training session on day 4. Moreover, on the training day (Day 4), scopolamine or the NMDA-antagonist MK-801 (both from Sigma Aldrich, Stockholm, Sweden) at 0.3 mg/kg or vehicle was administered once s.c. 30 min prior to training. No compound was administered on the test day (Day 5), except for when addressing effects on retrieval, in which case, ACD856 was dosed 30 min prior to testing on day 5. Retention latencies and time spent in the bright compartment were determined 24 h after training (Day 5).

[1] = test system: Shaffer collaterals-CA1 pathway, hippocampal slices; assay: Facilitation of long-term potentiation in rat hippocampal slices; conditions: 50 ng/mL; n = 9 slices from 7 rats
Protocol: Male Sprague Dawley rats (4–5 weeks old) from Charles River Laboratories, Sulzfeld, Germany, were used in these experiments. Rats were deeply anesthetized using isoflurane and decapitated soon after the disappearance of the corneal reflexes. The brains were removed and placed in ice-cold standard artificial CSF (aCSF) solution (124 mM NaCl, 30 mM NaHCO3, 10 mM glucose, 1.25 mM NaH2PO4, 3.5 mM KCl, 1 mM MgCl2, 2 mM CaCl2). Hippocampal horizontal sections (400 µm thick) were prepared using a Leica VT1200S vibratome (Leica Microsystems, Kista, Sweden). Immediately after slicing, sections were transferred into an interface incubation chamber filled with standard aCSF. The chamber was held at 34 °C during the slicing period and was subsequently allowed to cool down to room temperature. […] The facilitation of long-term potentiation (LTP) was monitored in the Shaffer collaterals (SC)-CA1 pathway in the hippocampus. […] Data were normalized with respect to the mean fEPSP slope recorded during the last 10 min of the baseline period.
It has been well-described that the transient, short-term plasticity of synaptic strength induced by a weak stimulation in hippocampal slices can turn into long-term potentiation (LTP) through the exogenous application of BDNF [71, 72, 73]. […] In the control slices, the recorded potentiation decreased to the baseline level after 60 min. […]

T2 sequence (P04629 33-796): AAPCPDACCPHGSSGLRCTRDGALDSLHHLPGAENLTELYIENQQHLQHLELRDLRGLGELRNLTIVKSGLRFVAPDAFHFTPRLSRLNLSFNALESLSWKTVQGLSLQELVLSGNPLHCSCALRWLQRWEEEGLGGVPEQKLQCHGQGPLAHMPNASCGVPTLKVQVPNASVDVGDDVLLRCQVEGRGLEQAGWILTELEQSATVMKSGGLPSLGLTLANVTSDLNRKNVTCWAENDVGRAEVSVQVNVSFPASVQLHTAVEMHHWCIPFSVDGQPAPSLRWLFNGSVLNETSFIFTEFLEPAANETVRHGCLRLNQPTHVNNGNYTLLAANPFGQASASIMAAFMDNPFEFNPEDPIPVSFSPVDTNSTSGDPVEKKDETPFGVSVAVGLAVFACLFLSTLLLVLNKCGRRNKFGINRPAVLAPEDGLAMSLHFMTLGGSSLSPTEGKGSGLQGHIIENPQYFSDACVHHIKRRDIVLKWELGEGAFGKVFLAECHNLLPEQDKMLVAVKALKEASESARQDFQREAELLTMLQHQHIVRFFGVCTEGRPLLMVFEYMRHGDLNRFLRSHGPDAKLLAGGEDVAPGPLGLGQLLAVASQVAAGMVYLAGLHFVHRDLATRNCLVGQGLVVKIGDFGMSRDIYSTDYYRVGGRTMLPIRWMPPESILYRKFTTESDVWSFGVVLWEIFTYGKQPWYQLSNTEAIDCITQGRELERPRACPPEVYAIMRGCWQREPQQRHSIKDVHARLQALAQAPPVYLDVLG
T1 sequence (Q16620 32-822): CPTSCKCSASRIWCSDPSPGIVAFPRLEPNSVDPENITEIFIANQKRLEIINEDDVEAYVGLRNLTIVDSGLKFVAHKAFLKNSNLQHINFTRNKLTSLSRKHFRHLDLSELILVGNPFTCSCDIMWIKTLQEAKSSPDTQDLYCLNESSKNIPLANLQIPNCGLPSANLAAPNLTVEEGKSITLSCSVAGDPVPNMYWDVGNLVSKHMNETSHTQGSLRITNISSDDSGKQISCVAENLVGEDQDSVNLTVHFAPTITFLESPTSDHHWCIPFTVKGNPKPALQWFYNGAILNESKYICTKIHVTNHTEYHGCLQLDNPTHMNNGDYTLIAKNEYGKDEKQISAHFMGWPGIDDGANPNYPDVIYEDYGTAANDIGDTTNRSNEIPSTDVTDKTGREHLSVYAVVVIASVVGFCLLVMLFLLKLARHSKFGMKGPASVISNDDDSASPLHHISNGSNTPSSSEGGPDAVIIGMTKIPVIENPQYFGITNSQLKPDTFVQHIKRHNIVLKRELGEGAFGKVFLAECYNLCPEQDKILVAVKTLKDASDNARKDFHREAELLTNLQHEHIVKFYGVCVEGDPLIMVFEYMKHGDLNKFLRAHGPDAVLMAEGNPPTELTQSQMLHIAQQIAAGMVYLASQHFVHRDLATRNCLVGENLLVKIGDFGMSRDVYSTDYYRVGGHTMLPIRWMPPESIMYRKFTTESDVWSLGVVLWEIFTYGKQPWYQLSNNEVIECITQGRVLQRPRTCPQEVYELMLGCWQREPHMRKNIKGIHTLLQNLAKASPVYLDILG

activity in the TrkB assay (TrkB): not active
activity in the TrkA assay (TrkA): not active
Molecule: N#CC(c1ccc(Cl)cc1)c1c(Cl)cc(-n2ncc(=O)[nH]c2=O)cc1Cl (centres unmarked) [Diclazuril]

Molecule: COc1cc2c(cc1OC)C(=O)C(CC1CCN(Cc3ccccc3)CC1)C2 (centres unmarked) [Donepezil]
time with novel object vs familiar object after scopolamine (Wistar rats): spent significantly more time with the novel object

Molecule: CNC(=O)Oc1ccc2c(c1)[C@]1(C)CCN(C)[C@@H]1N2C [physostigmine]
effect of low dose alone on scopolamine-induced memory impairment (C57BL/6J mice): no significant effect

B1: BDNF: recombinant human brain-derived neurotrophic factor (protein, UniProt P23560 19-247, looked up)
Neurotrophic factor BDNF …: APMKEANIRGQGGLAYPGVRTHGTLESVNGPKAGSRGLTSLADTFEHVIEELLDEDQKVRPNEENNKDADLYTSRVMLSSQVPLEPPLLFLLEEYKNYLDAANMSMRVRRHSDPARRGELSVCDSISEWVTAADKKTAVDMSGGTVTVLEKVPVSKGQLKQYFYETKCNPMGYTKEGCRGIDKRHWNSQCRTTQSYVRALTMDSKKRIGWRFIRIDTSCVCTLTIKRGR
long-lasting potentiation of evoked synaptic responses (fEPSP slope), fold increase [1]: 1.22 ± 0.04 fold
